According to patent publication US20210380548A1, “Fused [1,2,4]Thiadiazine Derivatives Which Act as KAT Inhibitors of the MYST Family” (CTxT Pty Limited, priority 2017, published 2021):
One block for each compound: values may come before it.

Columns and labels:
[1] = biological target: T1, TIP60-KAT5 (Homo sapiens, UniProt Q92993); test: Acetyltransferase biochemical assay (AlphaScreen), KAT5; conditions: Table 1 (TIP60-KAT5); 0.4 μM Acetyl coenzyme A, histone H4, 10 nM enzyme
T1 construct: encoding amino acid residues 2 to 461 (Uniprot Q92993-2) of human KAT5 isoform; made in house; host or cells: E. coli BL21 DE3

[2] = biological target: T2, MOZ-KAT6A (Homo sapiens, UniProt Q92794, A567V); test: Revised Acetyltransferase Biochemical Assay, KAT6A; conditions: Table 8 (MOZ-KAT6A), 1 μM Acetyl coenzyme A
T2 construct: encoding amino acid residues 507 to 778 (Uniprot Q92794-1) of human KAT6A; made in house; host or cells: E. coli BL21 DE3

[3] = biological target: T3, HBO-KAT7 (Homo sapiens, UniProt O95251); test: Revised Acetyltransferase Biochemical Assay, KAT7; conditions: Table 9 (HBO-KAT7), 1 μM Acetyl coenzyme A
T3 construct: encoding amino acid residues 325 to 611 (Uniprot 095251-1) of human KAT7; made in house; host or cells: E. coli BL21 DE3 RIL

[4] = biological target: T1, TIP60-KAT5; test: Revised Acetyltransferase Biochemical Assay, KAT5; conditions: 10 nM KAT5, 1 μM AcCoA, 100 nM histone H4, 90 min
[5] = biological target: T3, HBO-KAT7; test: Acetyltransferase biochemical assay (AlphaScreen), KAT7; conditions: Table 3 (HBO-KAT7); 0.4 μM Acetyl coenzyme A, histone H3.1, 40 nM enzyme

T2 sequence (Q92794 507-778 A567V limits assumed): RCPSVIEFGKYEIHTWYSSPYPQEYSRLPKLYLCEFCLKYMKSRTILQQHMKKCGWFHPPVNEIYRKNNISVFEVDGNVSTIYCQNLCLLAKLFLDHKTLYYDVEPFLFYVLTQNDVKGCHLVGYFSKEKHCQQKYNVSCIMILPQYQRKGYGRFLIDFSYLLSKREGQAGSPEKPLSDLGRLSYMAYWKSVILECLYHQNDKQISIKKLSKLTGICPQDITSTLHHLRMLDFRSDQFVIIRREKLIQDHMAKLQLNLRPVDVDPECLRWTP
T1 sequence (Q92993 2-461 isoform Q92993-2): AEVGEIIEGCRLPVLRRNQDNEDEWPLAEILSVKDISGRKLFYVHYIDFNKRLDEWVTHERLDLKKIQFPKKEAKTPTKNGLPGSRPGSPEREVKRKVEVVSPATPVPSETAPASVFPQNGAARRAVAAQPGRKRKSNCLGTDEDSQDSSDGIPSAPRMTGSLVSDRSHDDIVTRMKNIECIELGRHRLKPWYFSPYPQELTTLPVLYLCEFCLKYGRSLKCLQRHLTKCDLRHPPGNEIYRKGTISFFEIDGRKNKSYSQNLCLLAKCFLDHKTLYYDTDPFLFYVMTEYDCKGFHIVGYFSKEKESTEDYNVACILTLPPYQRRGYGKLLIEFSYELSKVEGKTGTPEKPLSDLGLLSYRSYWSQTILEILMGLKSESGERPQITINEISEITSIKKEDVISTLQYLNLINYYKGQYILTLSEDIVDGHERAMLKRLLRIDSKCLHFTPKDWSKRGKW
T3 sequence (O95251 with tags, fused parts or gaps): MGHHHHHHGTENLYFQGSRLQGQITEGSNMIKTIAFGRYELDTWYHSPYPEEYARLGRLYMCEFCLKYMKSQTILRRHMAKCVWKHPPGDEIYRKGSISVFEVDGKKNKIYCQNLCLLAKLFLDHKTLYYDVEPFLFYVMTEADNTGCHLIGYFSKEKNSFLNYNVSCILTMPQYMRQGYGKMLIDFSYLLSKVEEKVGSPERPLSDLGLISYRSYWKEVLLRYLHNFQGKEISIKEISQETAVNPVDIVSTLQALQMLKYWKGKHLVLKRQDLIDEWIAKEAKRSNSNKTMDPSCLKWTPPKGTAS

SMILES: Cc1ncccc1-c1ccccc1CCNC(=O)C1=Nc2ccccc2S(=O)(=O)N1 [Example 6, N-(2-(2-Methylpyridin-3-yl)phenethyl)-2H-benzo[e][1,2,4]thiadiazine-3-carboxamide 1,1-dioxide]
IC50 [1]: 90.1 µM
IC50 [2]: 18.7 µM
IC50 [3]: 21.3 µM
IC50 [4]: > 125 µM

SMILES: O=C(NCCc1ccccc1C(=O)O)C1=Nc2ccccc2S(=O)(=O)N1 [Example 30, 2-(2-(1,1-Dioxido-2H-benzo[e][1,2,4]thiadiazine-3-carboxamido)ethyl)benzoic Acid]
IC50 [1]: 112 µM

SMILES: O=C(NCC(C(=O)N1CCCC1)c1ccccc1)C1=Nc2ccccc2S(=O)(=O)N1 (stereo not shown) [Example 44, N-(3-oxo-2-phenyl-3-(pyrrolidin-1-yl)propyl)-2H-benzo[e][1,2,4]thiadiazine-3-carboxamide 1,1-dioxide]
IC50 [1]: > 125 µM

SMILES: COC(CNC(=O)C1=Nc2ccc(I)cc2S(=O)(=O)N1)c1ccccc1OC(F)F (stereo not shown) [Example 58, N-(2-(2-(difluoromethoxy)phenyl)-2-methoxyethyl)-7-iodo-2H-benzo[e][1,2,4]thiadiazine-3-carboxamide 1,1-dioxide]
IC50 [1]: 2.58 µM
IC50 [5]: 1.59 µM

SMILES: CCOC(=O)C(CNC(=O)C1=Nc2ccccc2S(=O)(=O)N1)c1ccccc1 (stereo not shown) [Example 73, ethyl 3-(1,1-dioxido-2H-benzo[e][1,2,4]thiadiazine-3-carboxamido)-2-phenylpropanoate]
IC50 [1]: 10.1 µM
IC50 [5]: 26.4 µM

SMILES: O=C(NCC(O)c1ccccc1F)C1=Nc2ccc(I)cc2S(=O)(=O)N1 (stereo not shown) [Example 89]
IC50 [1]: 2.06 µM
IC50 [5]: 3.37 µM

SMILES: O=C(NCCc1ccccc1O)C1=Nc2ccc(I)cc2S(=O)(=O)N1 [Example 90]
IC50 [1]: 0.96 µM
IC50 [5]: 0.915 µM

SMILES: COc1ccccc1C(O)CNC(=O)C1=Nc2ccc(I)cc2S(=O)(=O)N1 (stereo not shown) [Example 94]
IC50 [1]: 2.82 µM
IC50 [5]: 3.8 µM

SMILES: O=C(NCC(O)c1ccccc1C(F)(F)F)C1=Nc2ccc(I)cc2S(=O)(=O)N1 (stereo not shown) [Example 95]
IC50 [1]: 5.18 µM
IC50 [5]: 4.22 µM

SMILES: O=C(NCCc1ccc(CO)cc1)C1=Nc2ccc(I)cc2S(=O)(=O)N1 [Example 103]
IC50 [1]: > 125 µM
IC50 [5]: > 125 µM

SMILES: O=C(NCCc1ccccc1CO)C1=Nc2ccc(I)cc2S(=O)(=O)N1 [Example 109, N-(2-(hydroxymethyl)phenethyl)-7-iodo-2H-benzo[e][1,2,4]thiadiazine-3-carboxamide 1,1-dioxide]
IC50 [1]: 3.42 µM
IC50 [5]: 5.95 µM

SMILES: COc1cccc(C(O)CNC(=O)C2=Nc3ccc(I)cc3S(=O)(=O)N2)c1 (stereo not shown) [Example 121]
IC50 [1]: 40.8 µM
IC50 [5]: 47 µM

SMILES: O=C(NCC(O)c1cccc(F)c1)C1=Nc2ccc(I)cc2S(=O)(=O)N1 (stereo not shown) [Example 126]
IC50 [1]: 31.3 µM
IC50 [5]: 12.4 µM

SMILES: O=C(NCCc1ccccc1C(=O)O)C1=Nc2ccc(I)cc2S(=O)(=O)N1 [Example 155, 2-(2-(7-Iodo-1,1-dioxido-2H-benzo[e][1,2,4]thiadiazine-3-carboxamido)ethyl)benzoic Acid]
IC50 [2]: 0.595 µM
IC50 [3]: 9.52 µM
IC50 [4]: 2.68 µM

SMILES: O=C(NCC(c1ccccc1)c1nnc(C(F)F)o1)C1=Nc2ccc(I)cc2S(=O)(=O)N1 (stereo not shown) [Example 185]
IC50 [2]: 0.042 µM
IC50 [3]: 0.264 µM
IC50 [4]: 0.994 µM

SMILES: O=C(NCCc1ccccc1-c1n[nH]c(=O)o1)C1=Nc2ccccc2S(=O)(=O)N1 [Example 195]
IC50 [2]: 0.209 µM
IC50 [3]: 2.21 µM
IC50 [4]: 1.85 µM

SMILES: O=C(NCC(O)C1CCCCC1)C1=Nc2ccc(Cl)cc2S(=O)(=O)N1 (stereo not shown) [Example 200]
IC50 [2]: 9.8 µM
IC50 [3]: > 125 µM
IC50 [4]: > 125 µM

SMILES: CC(NS(C)(=O)=O)c1ccc2c(c1)S(=O)(=O)NC(C(=O)NCC(c1ccccc1)c1ncco1)=N2 (stereo not shown) [Example 210, 7-(1-(Methylsulfonamido)ethyl)-N-(2-(oxazol-2-yl)-2-phenylethyl)-2H-benzo[e][1,2,4]thiadiazine-3-carboxamide 1,1-dioxide]
IC50 [2]: 0.303 µM
IC50 [3]: 1.12 µM
IC50 [4]: 10.9 µM

SMILES: COc1ccc2c(c1)S(=O)(=O)NC(C(=O)NCC(c1cccc(Cl)c1)c1ncco1)=N2 (stereo not shown) [Example 223, N-(2-(3-Chlorophenyl)-2-(oxazol-2-yl)ethyl)-7-methoxy-2H-benzo[e][1,2,4]thiadiazine-3-carboxamide 1,1-dioxide]
IC50 [2]: 0.216 µM
IC50 [3]: 1.01 µM
IC50 [4]: 3.32 µM

SMILES: O=C(NCC(c1cccc(Cl)c1)c1ncco1)C1=Nc2ccc(O)cc2S(=O)(=O)N1 (stereo not shown) [Example 224, N-(2-(3-chlorophenyl)-2-(oxazol-2-yl)ethyl)-7-hydroxy-2H-benzo[e][1,2,4]thiadiazine-3-carboxamide 1,1-dioxide]
IC50 [2]: 0.165 µM
IC50 [3]: 0.204 µM
IC50 [4]: 9.01 µM

SMILES: O=C(NCC1(c2ncco2)CCCC1)C1=Nc2ccccc2S(=O)(=O)N1 [Example 242, N-((1-(oxazol-2-yl)cyclopentyl)methyl)-2H-benzo[e][1,2,4]thiadiazine-3-carboxamide 1,1-dioxide]
IC50 [2]: 2.77 µM
IC50 [3]: 33 µM
IC50 [4]: 123 µM

More lines, now with the values ahead:

IC50 [1]: 3.17 µM
IC50 [2]: 1.02 µM
IC50 [3]: 3.59 µM
IC50 [4]: 1.38 µM
SMILES: COc1ccccc1C(O)CNC(=O)C1=Nc2ccc(I)cc2S(=O)(=O)N1 (single isomer, unassigned) [Example 150]

IC50 [1]: > 125 µM
IC50 [5]: 9.45 µM
SMILES: Cn1cc(-c2ccccc2CCNC(=O)C2=Nc3ccccc3S(=O)(=O)N2)cn1 [Example 40, N-(2-(1-methyl-1H-pyrazol-4-yl)phenethyl)-2H-benzo[e][1,2,4]thiadiazine-3-carboxamide 1,1-dioxide]

IC50 [1]: 0.642 µM
IC50 [5]: 0.255 µM
SMILES: C#Cc1ccc2c(c1)S(=O)(=O)NC(C(=O)NCC(c1ccccc1)c1ncco1)=N2 (stereo not shown) [Example 42, 7-ethynyl-N-(2-(oxazol-2-yl)-2-phenylethyl)-2H-benzo[e][1,2,4]thiadiazine-3-carboxamide 1,1-dioxide]

IC50 [2]: 6.19 µM
IC50 [3]: 49.1 µM
IC50 [4]: > 125 µM
SMILES: CC(C)OC(=O)NC(CNC(=O)C1=Nc2ccccc2S(=O)(=O)N1)c1ccccc1 (stereo not shown) [Example 50, Isopropyl (2-(1,1-dioxido-2H-benzo[e][1,2,4]thiadiazine-3-carboxamido)-1-phenylethyl) carbamate]

IC50 [1]: > 125 µM
IC50 [5]: > 125 µM
SMILES: O=C(NCCc1ccncc1)C1=Nc2ccc(I)cc2S(=O)(=O)N1 [Example 104]

IC50 [1]: 46.3 µM
IC50 [5]: > 125 µM
SMILES: O=C(NCCc1ccc(O)cc1)C1=Nc2ccc(I)cc2S(=O)(=O)N1 [Example 105]

IC50 [1]: > 125 µM
IC50 [5]: > 125 µM
SMILES: COc1ccc(CCNC(=O)C2=Nc3ccc(I)cc3S(=O)(=O)N2)cc1 [Example 106]

IC50 [1]: 75.6 µM
IC50 [5]: 101 µM
SMILES: CNC(=O)c1ccccc1CCNC(=O)C1=Nc2ccc(I)cc2S(=O)(=O)N1 [Example 110]

IC50 [1]: 16.6 µM
IC50 [5]: 81.4 µM
SMILES: CN(C)C(=O)c1ccccc1CCNC(=O)C1=Nc2ccc(I)cc2S(=O)(=O)N1 [Example 111]

IC50 [1]: 5.26 µM
IC50 [5]: 18.5 µM
SMILES: O=C(NCC(O)c1ccccc1OCc1ccccc1)C1=Nc2ccc(I)cc2S(=O)(=O)N1 (stereo not shown) [Example 119]

IC50 [1]: 5.01 µM
IC50 [5]: 1.72 µM
SMILES: O=C(NCC(F)c1ccccc1)C1=Nc2ccc(I)cc2S(=O)(=O)N1 (stereo not shown) [Example 123]

IC50 [1]: 24.6 µM
IC50 [5]: 18.7 µM
SMILES: O=C(NCC(O)c1cccc(Cl)c1)C1=Nc2ccc(I)cc2S(=O)(=O)N1 (stereo not shown) [Example 124]

IC50 [1]: > 125 µM
IC50 [5]: > 125 µM
SMILES: O=C(NCC(O)c1ccc(Cl)cc1)C1=Nc2ccc(I)cc2S(=O)(=O)N1 (stereo not shown) [Example 125]

IC50 [2]: 0.613 µM
IC50 [3]: 2.3 µM
IC50 [4]: 11.1 µM
SMILES: O=C(NCCc1ccccc1-n1ccnc1)C1=Nc2ccc(I)cc2S(=O)(=O)N1 [Example 192]

IC50 [2]: 5.56 µM
IC50 [3]: 26 µM
IC50 [4]: ≥ 125 µM
SMILES: COCc1ccccc1C(CNC(=O)C1=Nc2ccccc2S(=O)(=O)N1)c1ncco1 (stereo not shown) [Example 194]

IC50 [2]: 0.97 µM
IC50 [3]: 2.73 µM
IC50 [4]: 30 µM
SMILES: O=C(NCC1(c2ccccc2)CCCC1)C1=Nc2ccccc2S(=O)(=O)N1 [Example 205]

IC50 [2]: 1.6 µM
IC50 [3]: 4.51 µM
IC50 [4]: 13.3 µM
SMILES: CC(N)c1ccc2c(c1)S(=O)(=O)NC(C(=O)NCC(c1ccccc1)c1ncco1)=N2 (stereo not shown) [Example 208, 7-(1-Aminoethyl)-N-(2-(oxazol-2-yl)-2-phenylethyl)-2H-benzo[e][1,2,4]thiadiazine-3-carboxamide 1,1-dioxide]

IC50 [2]: 0.378 µM
IC50 [3]: 1.67 µM
IC50 [4]: 8.45 µM
SMILES: CNC(C)c1ccc2c(c1)S(=O)(=O)NC(C(=O)NCC(c1ccccc1)c1ncco1)=N2 (stereo not shown) [Example 209, 7-(1-(Methylamino)ethyl)-N-(2-(oxazol-2-yl)-2-phenylethyl)-2H-benzo[e][1,2,4]thiadiazine-3-carboxamide 1,1-dioxide]

IC50 [2]: 2.18 µM
IC50 [3]: 6.07 µM
IC50 [4]: 24.7 µM
SMILES: CC(=O)NC(C)c1ccc2c(c1)S(=O)(=O)NC(C(=O)NCC(c1ccccc1)c1ncco1)=N2 (stereo not shown) [Example 211, 7-(1-Acetamidoethyl)-N-(2-(oxazol-2-yl)-2-phenylethyl)-2H-benzo[e][1,2,4]thiadiazine-3-carboxamide 1,1-dioxide]

IC50 [2]: 0.761 µM
IC50 [3]: 2.3 µM
IC50 [4]: 4.9 µM
SMILES: NC(=O)c1ccccc1CCNC(=O)C1=Nc2ccc(I)cc2S(=O)(=O)N1 [Example 230, N-(2-Carbamoylphenethyl)-7-iodo-2H-benzo[e][1,2,4]thiadiazine-3-carboxamide 1,1-dioxide]
